Laboratory results as given in US20120245137A1 (Zalicus Pharmaceuticals Ltd., priority 2009, published 2012).
Read-outs that look alike come from different tables or passages of the source.

Key:
Type in all cases: cell-based
Human Cav 2.2 channels = Human Cav 2.2 channels (Homo sapiens, UniProt Q00975); assay: Fluorescent assay for CaV2.2 channels using potassium depolarization (VIPR/FLIPR); settings: FLIPR data; for CAv2.2 IC50 Ratio closed/inact.: ratio closed/inactivated IC50
Method in brief: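 HEK293 cells stably expressing human Cav2.2 with α2δ and β subunits plus Kir2.3 were loaded with fluo-4 and incubated 30 min at 25 °C with compound in 4, 12, 25 or 30 mM potassium buffer. Channels were opened with 70 mM potassium (final) and calcium influx was read by fluorescence (Ex 480/Em 535 nm).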

T-type calcium channel [1] = target: T-type calcium channel (Homo sapiens, UniProt O95180); assay: T-type channel blocking, FLIPR data (Table 6); settings: for CAv3.2 IC50 Ratio closed/inact.: CAv3.2, ratio closed/inactivated IC50
Excerpt: (§1) Another method, high-throughput spectrophotometric assay, utilizes loading of the cell lines with a fluorescent dye sensitive to intracellular calcium concentration and subsequent examination of the effects of compounds on the ability of depolarization by potassium chloride or other means to alter intracellular calcium levels.

T-type calcium channel [2] = target: T-type calcium channel (Homo sapiens, UniProt O43497); assay: T-type channel blocking, FLIPR data (Table 6); settings: CAv3.1
Excerpt: as §1

CAv1.2 = CAv1.2 (Homo sapiens, UniProt Q13936); assay: FLIPR data, CAv1.2 channel blocking (Table 6); settings: for CAv1.2 IC50 Ratio closed/inact.: ratio closed/inactivated IC50
[3] = closed state, read-out: CAv2.2 IC50 Closed
[4] = inactivated state, read-out: CAv2.2 IC50 Inact.
[5] = CAv3.2, closed state, read-out: CAv3.2 IC50 Closed
[6] = CAv3.2, inactivated state, read-out: CAv3.2 IC50 Inact.
[7] = closed state, read-out: CAv1.2 IC50 Closed
[8] = inactivated state, read-out: CAv1.2 IC50 Inact.

T-type calcium channel (Homo sapiens, UniProt O43497), sequence (O43497 whole entry): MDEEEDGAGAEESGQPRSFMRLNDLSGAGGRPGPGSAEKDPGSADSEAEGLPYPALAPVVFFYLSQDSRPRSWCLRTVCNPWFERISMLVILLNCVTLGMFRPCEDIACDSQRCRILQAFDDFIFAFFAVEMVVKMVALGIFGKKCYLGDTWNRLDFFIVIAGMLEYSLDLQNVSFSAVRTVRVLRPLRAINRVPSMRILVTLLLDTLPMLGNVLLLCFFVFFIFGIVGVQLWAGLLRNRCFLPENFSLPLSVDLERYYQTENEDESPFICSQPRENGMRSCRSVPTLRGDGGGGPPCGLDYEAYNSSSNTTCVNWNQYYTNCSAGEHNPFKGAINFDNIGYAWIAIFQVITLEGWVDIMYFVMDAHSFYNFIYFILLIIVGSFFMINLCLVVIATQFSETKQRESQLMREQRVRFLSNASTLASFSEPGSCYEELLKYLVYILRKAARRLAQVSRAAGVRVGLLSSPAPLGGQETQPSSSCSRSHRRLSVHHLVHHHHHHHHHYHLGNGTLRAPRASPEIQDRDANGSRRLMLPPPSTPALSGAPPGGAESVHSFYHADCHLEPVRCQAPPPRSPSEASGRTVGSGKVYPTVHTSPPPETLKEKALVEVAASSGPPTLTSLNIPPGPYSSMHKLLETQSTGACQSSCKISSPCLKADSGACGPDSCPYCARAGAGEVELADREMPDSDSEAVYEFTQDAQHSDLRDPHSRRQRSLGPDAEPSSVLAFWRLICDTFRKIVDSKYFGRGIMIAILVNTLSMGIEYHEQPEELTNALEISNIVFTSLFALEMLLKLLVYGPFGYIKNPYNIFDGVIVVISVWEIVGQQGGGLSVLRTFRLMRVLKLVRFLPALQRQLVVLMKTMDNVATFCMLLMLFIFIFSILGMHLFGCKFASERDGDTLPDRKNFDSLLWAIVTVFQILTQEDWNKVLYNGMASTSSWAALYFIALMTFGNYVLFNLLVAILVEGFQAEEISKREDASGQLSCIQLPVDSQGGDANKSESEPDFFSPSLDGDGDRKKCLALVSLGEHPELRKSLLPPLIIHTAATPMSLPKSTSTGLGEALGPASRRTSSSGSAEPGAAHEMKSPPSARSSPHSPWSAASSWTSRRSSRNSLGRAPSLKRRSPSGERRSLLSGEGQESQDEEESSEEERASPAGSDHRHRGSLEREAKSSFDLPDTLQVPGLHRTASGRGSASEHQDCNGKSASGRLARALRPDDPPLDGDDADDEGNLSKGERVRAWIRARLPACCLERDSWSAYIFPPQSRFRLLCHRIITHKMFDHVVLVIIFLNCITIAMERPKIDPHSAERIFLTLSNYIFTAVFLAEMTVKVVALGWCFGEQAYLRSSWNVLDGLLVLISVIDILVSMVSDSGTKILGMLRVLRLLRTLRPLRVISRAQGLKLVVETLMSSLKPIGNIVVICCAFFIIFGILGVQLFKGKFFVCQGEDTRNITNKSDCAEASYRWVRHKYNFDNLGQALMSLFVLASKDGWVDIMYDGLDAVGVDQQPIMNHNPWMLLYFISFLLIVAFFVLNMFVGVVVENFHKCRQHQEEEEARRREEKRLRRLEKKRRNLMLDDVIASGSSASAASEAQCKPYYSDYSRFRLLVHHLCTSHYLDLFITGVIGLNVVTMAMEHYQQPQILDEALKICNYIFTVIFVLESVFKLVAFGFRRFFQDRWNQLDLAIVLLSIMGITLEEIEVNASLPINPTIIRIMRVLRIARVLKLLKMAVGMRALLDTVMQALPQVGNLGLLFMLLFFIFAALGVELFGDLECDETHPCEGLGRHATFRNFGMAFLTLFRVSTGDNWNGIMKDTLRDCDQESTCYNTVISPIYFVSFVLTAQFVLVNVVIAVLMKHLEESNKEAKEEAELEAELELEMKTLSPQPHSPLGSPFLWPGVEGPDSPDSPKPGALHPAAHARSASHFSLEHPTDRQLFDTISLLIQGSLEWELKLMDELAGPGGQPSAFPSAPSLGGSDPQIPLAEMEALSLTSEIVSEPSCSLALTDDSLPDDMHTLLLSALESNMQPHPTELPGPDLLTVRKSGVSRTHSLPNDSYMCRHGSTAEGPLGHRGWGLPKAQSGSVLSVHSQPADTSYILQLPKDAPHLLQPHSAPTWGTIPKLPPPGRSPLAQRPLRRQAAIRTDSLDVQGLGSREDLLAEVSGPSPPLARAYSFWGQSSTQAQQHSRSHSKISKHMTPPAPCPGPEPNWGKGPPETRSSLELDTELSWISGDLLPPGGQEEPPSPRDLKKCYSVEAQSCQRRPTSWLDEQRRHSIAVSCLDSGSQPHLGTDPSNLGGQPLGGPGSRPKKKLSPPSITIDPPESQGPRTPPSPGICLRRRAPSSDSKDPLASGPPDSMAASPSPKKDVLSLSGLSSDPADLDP
T-type calcium channel (Homo sapiens, UniProt O95180), sequence (O95180 whole entry): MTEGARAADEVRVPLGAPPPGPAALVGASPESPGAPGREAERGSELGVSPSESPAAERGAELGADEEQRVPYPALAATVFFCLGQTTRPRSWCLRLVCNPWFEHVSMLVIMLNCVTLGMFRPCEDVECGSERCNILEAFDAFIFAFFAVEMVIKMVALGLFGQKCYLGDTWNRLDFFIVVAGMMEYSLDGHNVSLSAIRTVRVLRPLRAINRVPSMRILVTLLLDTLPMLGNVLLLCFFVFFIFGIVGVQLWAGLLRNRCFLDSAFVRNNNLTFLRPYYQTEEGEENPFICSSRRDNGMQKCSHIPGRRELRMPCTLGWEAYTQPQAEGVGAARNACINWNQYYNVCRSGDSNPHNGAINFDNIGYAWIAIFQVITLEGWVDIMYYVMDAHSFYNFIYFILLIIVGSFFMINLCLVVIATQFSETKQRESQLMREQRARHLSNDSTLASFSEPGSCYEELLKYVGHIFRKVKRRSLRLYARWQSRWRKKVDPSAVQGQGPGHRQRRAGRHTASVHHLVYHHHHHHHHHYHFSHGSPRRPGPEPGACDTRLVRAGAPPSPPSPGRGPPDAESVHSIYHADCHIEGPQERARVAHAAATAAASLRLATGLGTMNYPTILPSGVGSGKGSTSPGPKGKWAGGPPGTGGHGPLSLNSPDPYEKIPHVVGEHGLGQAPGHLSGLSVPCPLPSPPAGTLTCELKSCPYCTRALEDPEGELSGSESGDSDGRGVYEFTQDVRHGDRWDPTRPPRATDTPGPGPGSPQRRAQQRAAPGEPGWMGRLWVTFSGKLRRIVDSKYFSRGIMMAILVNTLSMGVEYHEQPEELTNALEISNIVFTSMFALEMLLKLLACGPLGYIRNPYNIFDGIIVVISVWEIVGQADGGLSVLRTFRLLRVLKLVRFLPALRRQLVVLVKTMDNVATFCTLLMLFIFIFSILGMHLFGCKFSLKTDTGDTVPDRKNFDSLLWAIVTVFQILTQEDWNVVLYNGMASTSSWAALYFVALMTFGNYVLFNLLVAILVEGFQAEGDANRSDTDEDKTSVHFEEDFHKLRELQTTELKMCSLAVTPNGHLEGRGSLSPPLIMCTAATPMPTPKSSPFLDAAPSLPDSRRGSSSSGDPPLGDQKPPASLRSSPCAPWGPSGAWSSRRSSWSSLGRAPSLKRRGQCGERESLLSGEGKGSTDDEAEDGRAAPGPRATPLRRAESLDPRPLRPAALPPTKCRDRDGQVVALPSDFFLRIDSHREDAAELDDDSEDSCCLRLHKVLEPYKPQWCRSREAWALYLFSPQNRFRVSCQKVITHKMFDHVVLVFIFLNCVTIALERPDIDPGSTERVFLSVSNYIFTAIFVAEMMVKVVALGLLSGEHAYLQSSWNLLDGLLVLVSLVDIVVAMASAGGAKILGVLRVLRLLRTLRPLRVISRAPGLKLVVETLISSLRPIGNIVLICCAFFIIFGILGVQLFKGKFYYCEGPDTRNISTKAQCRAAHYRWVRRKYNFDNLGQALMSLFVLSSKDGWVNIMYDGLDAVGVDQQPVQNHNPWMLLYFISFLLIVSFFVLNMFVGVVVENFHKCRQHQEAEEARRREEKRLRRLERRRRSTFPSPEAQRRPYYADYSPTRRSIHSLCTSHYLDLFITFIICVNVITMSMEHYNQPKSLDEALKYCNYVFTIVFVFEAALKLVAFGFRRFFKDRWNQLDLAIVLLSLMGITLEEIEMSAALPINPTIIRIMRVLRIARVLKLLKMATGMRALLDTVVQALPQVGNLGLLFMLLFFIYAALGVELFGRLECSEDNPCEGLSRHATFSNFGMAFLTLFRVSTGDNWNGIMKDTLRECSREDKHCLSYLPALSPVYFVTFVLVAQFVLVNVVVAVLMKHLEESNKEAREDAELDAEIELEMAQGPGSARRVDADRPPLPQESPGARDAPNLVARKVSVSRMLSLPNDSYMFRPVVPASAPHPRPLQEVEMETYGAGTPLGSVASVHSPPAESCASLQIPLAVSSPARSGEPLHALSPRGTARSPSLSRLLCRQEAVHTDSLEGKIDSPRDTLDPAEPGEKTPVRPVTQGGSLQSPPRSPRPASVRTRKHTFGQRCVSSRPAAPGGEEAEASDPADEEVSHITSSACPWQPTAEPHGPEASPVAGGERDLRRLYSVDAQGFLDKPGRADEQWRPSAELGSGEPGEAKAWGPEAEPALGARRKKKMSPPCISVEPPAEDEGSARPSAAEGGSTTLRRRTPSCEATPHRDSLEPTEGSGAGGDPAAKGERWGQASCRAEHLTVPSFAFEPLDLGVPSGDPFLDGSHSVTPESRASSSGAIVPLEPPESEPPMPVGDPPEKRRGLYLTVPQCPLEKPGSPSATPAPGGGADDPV

Structure (SMILES)	IC50 (Human Cav 2.2 channels; [3]) [µM]	IC50 (Human Cav 2.2 channels; [4]) [µM]	CAv2.2 IC50 Ratio closed/inact. (Human Cav 2.2 channels)	IC50 (T-type calcium channel [1]; [5]) [µM]	IC50 (T-type calcium channel [1]; [6]) [µM]	CAv3.2 IC50 Ratio closed/inact. (T-type calcium channel [1])	IC50 (T-type calcium channel [2]) [µM]	IC50 (CAv1.2; [7]) [µM]	IC50 (CAv1.2; [8]) [µM]	CAv1.2 IC50 Ratio closed/inact. (CAv1.2)
O=C(NC[C@H]1C[C@H](S(=O)(=O)c2cccc(OC(F)(F)F)c2)C1)c1ccc(Cl)cn1 [Compound 693]	1.77	0.34	5.2	7.95	2.77	2.9	≥ 10	≥ 10	6.64	1.5
O=C(NC[C@H]1C[C@H](S(=O)(=O)c2cccc(OC(F)(F)F)c2)C1)c1ccc(C(F)(F)F)nc1 [Compound 695]	5.12	0.78	6.6	8.58	5.58	1.5	9.87	≥ 10	≥ 10	–
O=C(NC[C@H]1C[C@H](S(=O)(=O)c2cccc(OC(F)(F)F)c2)C1)c1ccc(OCC(F)(F)F)nc1 [Compound 698]	2.7	–	5.7	3.02	–	1.1	3.02	5.6	2.48	2.3
O=C(NC[C@H]1C[C@H](S(=O)(=O)c2cc(F)cc(C(F)(F)F)c2)C1)c1ccc(Cl)cn1 [Compound 702]	3.95	0.89	4.4	7.5	3.79	2	≥ 10	9.86	7.28	1.4
O=C(NC[C@H]1C[C@H](S(=O)(=O)c2cc(F)cc(C(F)(F)F)c2)C1)c1ccc(C(F)(F)F)cc1 [Compound 703]	6.49	0.83	7.8	4.14	1.39	3	1.86	8.18	4.83	1.7
O=C(NC[C@H]1C[C@H](S(=O)(=O)c2cc(F)cc(C(F)(F)F)c2)C1)c1ccc(C(F)(F)F)nc1 [Compound 704]	10	1.65	6.1	≥ 10	8.75	1.1	≥ 10	–	≥ 10	–
O=C(NC[C@H]1C[C@H](S(=O)(=O)c2cc(F)cc(C(F)(F)F)c2)C1)c1ccnc(C(F)(F)F)n1 [Compound 710]	5.01	1.49	3.4	≥ 10	10	1	≥ 10	≥ 10	≥ 10	–
CC(C)(C[C@H]1C[C@H](NC(=O)c2ccc(Cl)cc2S(C)(=O)=O)C1)S(=O)(=O)c1cccc(C(F)(F)F)c1 [Compound 718]	4.71	0.15	31.4	5.68	3.67	1.5	≥ 10	≥ 10	≥ 10	–
CC(C)(C[C@H]1C[C@H](NC(=O)c2ccc(C(F)(F)F)cn2)C1)S(=O)(=O)c1cccc(C(F)(F)F)c1 [Compound 722]	1.21	0.23	5.3	3.68	2.66	1.4	2.76	8.04	2.56	3.1

The next lines start with results.

IC50 (Human Cav 2.2 channels; [3]) [µM]	IC50 (Human Cav 2.2 channels; [4]) [µM]	CAv2.2 IC50 Ratio closed/inact. (Human Cav 2.2 channels)	IC50 (T-type calcium channel [1]; [5]) [µM]	IC50 (T-type calcium channel [1]; [6]) [µM]	CAv3.2 IC50 Ratio closed/inact. (T-type calcium channel [1])	IC50 (T-type calcium channel [2]) [µM]	Structure (SMILES)	IC50 (CAv1.2; [7]) [µM]	IC50 (CAv1.2; [8]) [µM]	CAv1.2 IC50 Ratio closed/inact. (CAv1.2)
7.75	0.78	9.9	7.92	2.48	3.2	9.81	CS(=O)(=O)c1cc(Cl)ccc1C(=O)NC[C@H]1C[C@H](S(=O)(=O)c2cccc(OC(F)(F)F)c2)C1 [Compound 692]	≥ 10	≥ 10	–
2.11	0.3	7	2.47	1	2.5	3.08	O=C(NC[C@H]1C[C@H](S(=O)(=O)c2cccc(OC(F)(F)F)c2)C1)c1ccc(C(F)(F)F)cc1 [Compound 694]	7.51	2.22	3.4
7.07	0.94	7.5	9.92	6.35	1.6	≥ 10	O=C(NC[C@H]1C[C@H](S(=O)(=O)c2cccc(OC(F)(F)F)c2)C1)c1cnc(C(F)(F)F)nc1 [Compound 696]	≥ 10	8.33	1.2
10	2.47	4	≥ 10	10	1	≥ 10	O=C(NC[C@H]1C[C@H](S(=O)(=O)c2cc(F)cc(C(F)(F)F)c2)C1)c1cnc(C(F)(F)F)nc1 [Compound 705]	≥ 10	≥ 10	–
3.95	0.85	4.6	4.02	0.74	5.4	2.87	O=C(NC[C@H]1C[C@H](S(=O)(=O)c2cc(F)cc(C(F)(F)F)c2)C1)c1ccc(OCC(F)(F)F)nc1 [Compound 706]	7.98	3.09	2.6
6.04	0.22	27.5	≥ 10	6.84	1.5	≥ 10	CC(C)S(=O)(=O)c1cc(C(F)(F)F)cnc1C(=O)N[C@H]1C[C@H](CC(C)(C)S(=O)(=O)c2cccc(C(F)(F)F)c2)C1 [Compound 716]	7.76	6.54	1.2
1.24	0.11	11.3	0.73	0.64	1.1	1.78	CC(C)(C[C@H]1C[C@H](NC(=O)c2ccc(C(F)(F)F)cc2)C1)S(=O)(=O)c1cccc(C(F)(F)F)c1 [Compound 719]	2.73	0.75	3.6
0.83	0.16	5.2	3.95	2.05	1.9	4.5	CC(C)(C[C@H]1C[C@H](NC(=O)c2ccc(Cl)cn2)C1)S(=O)(=O)c1cccc(C(F)(F)F)c1 [Compound 720]	7.01	2.45	2.9
4.86	0.51	9.5	8.44	4.32	2	≥ 10	CC(C)(C[C@H]1C[C@H](NC(=O)c2cnc(C(F)(F)F)nc2)C1)S(=O)(=O)c1cccc(C(F)(F)F)c1 [Compound 721]	≥ 10	4.57	2.2
